{
  "source": "paper PMC7026418",
  "about": "“The kinase polypharmacology landscape of clinical PARP inhibitors” (Scientific Reports, 2020)",
  "key": {"[1]": {"target": "CSNK2A1 (Homo sapiens, UniProt P68400)", "assay": "biochemical", "parameters": "Reaction Biology HotSpot radiometric 33P-ATP catalytic assay at Km ATP; percent inhibition versus DMSO, mean n=2", "settings": "Km ATP", "excerpt": "(§1) Unreacted phosphate is removed via washing the filters."}, "[2]": {"target": "HIPK3 (Homo sapiens, UniProt Q9H422)", "assay": "biochemical", "parameters": "Reaction Biology HotSpot radiometric 33P-ATP catalytic assay at Km ATP; percent inhibition versus DMSO, mean n=2", "settings": "Km ATP", "excerpt": "as §1"}, "[3]": {"target": "CSNK2A2 (Homo sapiens, UniProt P19784)", "assay": "biochemical", "parameters": "Reaction Biology HotSpot radiometric 33P-ATP catalytic assay at Km ATP; percent inhibition versus DMSO, mean n=2", "settings": "Km ATP", "excerpt": "as §1"}, "[4]": {"target": "HIPK2 (Homo sapiens, UniProt Q9H2X6)", "assay": "biochemical", "parameters": "Reaction Biology HotSpot radiometric 33P-ATP catalytic assay at Km ATP; percent inhibition versus DMSO, mean n=2", "settings": "Km ATP", "excerpt": "as §1"}, "[5]": {"target": "PIM2 (Homo sapiens, UniProt Q9P1W9)", "assay": "biochemical", "parameters": "Reaction Biology HotSpot radiometric 33P-ATP catalytic assay at Km ATP; percent inhibition versus DMSO, mean n=2", "settings": "Km ATP", "excerpt": "as §1"}, "[6]": {"target": "CIT (Homo sapiens, UniProt O14578)", "assay": "biochemical", "parameters": "Reaction Biology HotSpot radiometric 33P-ATP catalytic assay at Km ATP; percent inhibition versus DMSO, mean n=2", "settings": "Km ATP", "excerpt": "as §1"}, "[7]": {"target": "T1, HASPIN (Homo sapiens, UniProt Q8TF76)", "T1 sequence (Q8TF76 1-798)": "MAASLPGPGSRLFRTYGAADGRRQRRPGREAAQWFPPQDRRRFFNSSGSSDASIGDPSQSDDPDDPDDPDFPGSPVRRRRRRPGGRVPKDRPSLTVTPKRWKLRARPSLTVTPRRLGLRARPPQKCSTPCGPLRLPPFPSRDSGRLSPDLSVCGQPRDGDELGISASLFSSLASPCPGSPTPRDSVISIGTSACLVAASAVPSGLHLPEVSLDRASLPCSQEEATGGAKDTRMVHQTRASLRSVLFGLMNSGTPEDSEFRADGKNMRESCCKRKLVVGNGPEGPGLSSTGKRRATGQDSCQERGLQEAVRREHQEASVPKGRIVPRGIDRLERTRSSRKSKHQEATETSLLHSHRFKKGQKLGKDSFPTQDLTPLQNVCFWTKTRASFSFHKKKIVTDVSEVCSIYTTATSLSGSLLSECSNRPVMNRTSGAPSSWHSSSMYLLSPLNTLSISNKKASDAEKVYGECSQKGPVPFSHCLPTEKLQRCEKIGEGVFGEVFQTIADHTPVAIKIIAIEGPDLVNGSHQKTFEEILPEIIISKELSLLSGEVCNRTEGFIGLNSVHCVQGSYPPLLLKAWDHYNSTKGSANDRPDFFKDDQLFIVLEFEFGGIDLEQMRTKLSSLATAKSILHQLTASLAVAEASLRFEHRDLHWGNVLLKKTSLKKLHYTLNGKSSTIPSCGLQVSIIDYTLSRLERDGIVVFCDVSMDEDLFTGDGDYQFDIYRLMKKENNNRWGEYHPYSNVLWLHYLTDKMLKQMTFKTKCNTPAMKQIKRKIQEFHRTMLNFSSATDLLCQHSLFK", "assay": "biochemical", "parameters": "Reaction Biology HotSpot radiometric 33P-ATP catalytic assay at Km ATP; percent inhibition versus DMSO, mean n=2", "settings": "Km ATP", "excerpt": "as §1"}, "[8]": {"target": "DYRK1B (Homo sapiens, UniProt Q9Y463)", "assay": "biochemical", "settings": "read-out: % inhibition"}, "[9]": {"target": "PIM1 (Homo sapiens, UniProt P11309)", "assay": "KinomeScan active site-directed competition binding at […]; […] catalytic inhibition at […] (n = […])"}, "[10]": {"target": "STK17A (Homo sapiens, UniProt Q9UEE5)", "assay": "biochemical", "parameters": "Reaction Biology HotSpot radiometric 33P-ATP catalytic assay at Km ATP; percent inhibition versus DMSO, mean n=2", "settings": "Km ATP", "excerpt": "as §1"}, "[11]": {"target": "HIPK1 (Homo sapiens, UniProt Q86Z02)", "assay": "biochemical", "parameters": "Reaction Biology HotSpot radiometric 33P-ATP catalytic assay at Km ATP; percent inhibition versus DMSO, mean n=2", "settings": "Km ATP", "excerpt": "as §1"}},
  "data": [
    {"smiles": "NC(=O)c1cccc2cn(-c3ccc([C@@H]4CCCNC4)cc3)nc12", "note": "[Niraparib]", "values": [
      {"measurement": "inhibition at 1 µM", "setting": "[1]", "value": 12, "unit": "%"},
      {"measurement": "inhibition at 1 µM", "setting": "[2]", "value": 5, "unit": "%"},
      {"measurement": "inhibition at 1 µM", "setting": "[3]", "value": -1, "unit": "%"},
      {"measurement": "inhibition at 1 µM", "setting": "[4]", "value": 23, "unit": "%"},
      {"measurement": "inhibition at 1 µM", "setting": "[5]", "value": -5, "unit": "%"},
      {"measurement": "inhibition at 1 µM", "setting": "[6]", "value": 10, "unit": "%"},
      {"measurement": "inhibition at 1 µM", "setting": "[7]", "value": 10, "unit": "%"},
      {"measurement": "inhibition at 1 µM", "setting": "[8]", "value": 82, "unit": "%"}
    ]},
    {"smiles": "CNCc1ccc(-c2[nH]c3cc(F)cc4c3c2CCNC4=O)cc1", "note": "[Rucaparib]", "values": [
      {"measurement": "KinomeScan active site-directed competition binding at 10 μM; 27% catalytic inhi", "setting": "[9]", "value": "recover most of the previously known off-targets of rucaparib, including the most potent known interactions with PIM1 and DYRK1A"},
      {"measurement": "inhibition at 1 µM", "setting": "[10]", "value": -6, "unit": "%"},
      {"measurement": "inhibition at 1 µM", "setting": "[11]", "value": -16, "unit": "%"},
      {"measurement": "inhibition at 1 µM", "setting": "[1]", "value": 21, "unit": "%"},
      {"measurement": "inhibition at 1 µM", "setting": "[2]", "value": -12, "unit": "%"},
      {"measurement": "inhibition at 1 µM", "setting": "[3]", "value": 17, "unit": "%"},
      {"measurement": "inhibition at 1 µM", "setting": "[4]", "value": -6, "unit": "%"},
      {"measurement": "inhibition at 1 µM", "setting": "[6]", "value": 15, "unit": "%"},
      {"measurement": "inhibition at 1 µM", "setting": "[7]", "value": -6, "unit": "%"}
    ]}
  ]
}
